# Reference: ChEMBL document CHEMBL2429759, “Anti-tumor activity evaluation of novel chrysin-organogermanium(IV) complex in MCF-7 cells” (Bioorg Med Chem Lett, 2013)
# How the values were obtained:
# [1] = Growth inhibition of human MCF10A cells at 5 ug/ml by MTT assay; format: cell-based, MCF-10A; settings: MCF10A cells, read-out: GI
# HepG2 [2] = assay: Growth inhibition of human HepG2 cells at 20 ug/ml by MTT assay; format: functional; settings: read-out: GI
# COLO 205 [3] = assay: Growth inhibition of human COLO205 cells at 30 ug/ml by MTT assay; format: functional; settings: read-out: GI
# HepG2 [4] = assay: Growth inhibition of human HepG2 cells by MTT assay; format: functional, cell-based
# HepG2 [5] = assay: Growth inhibition of human HepG2 cells at 10 ug/ml by MTT assay; format: functional; settings: read-out: GI
# MCF7 [6] = assay: Growth inhibition of human MCF7 cells at 5 ug/ml by MTT assay; format: functional; settings: read-out: GI
# COLO 205 [7] = assay: Growth inhibition of human COLO205 cells at 10 ug/ml by MTT assay; format: functional; settings: read-out: GI
# [8] = Growth inhibition of human MCF10A cells at 10 ug/ml by MTT assay; format: cell-based, MCF-10A; settings: MCF10A cells, read-out: GI
# MCF7 [9] = assay: Growth inhibition of human MCF7 cells at 30 ug/ml by MTT assay; format: functional; settings: read-out: GI
# COLO 205 [10] = assay: Growth inhibition of human COLO205 cells by MTT assay; format: functional, cell-based
# COLO 205 [11] = assay: Growth inhibition of human COLO205 cells at 5 ug/ml by MTT assay; format: functional; settings: read-out: GI
# [12] = Growth inhibition of human MCF10A cells at 20 ug/ml by MTT assay; format: cell-based, MCF-10A; settings: MCF10A cells, read-out: GI
# [13] = Growth inhibition of human MCF10A cells at 30 ug/ml by MTT assay; format: cell-based, MCF-10A; settings: MCF10A cells, read-out: GI
# MCF7 [14] = assay: Growth inhibition of human MCF7 cells at 20 ug/ml by MTT assay; format: functional; settings: read-out: GI
# HepG2 [15] = assay: Growth inhibition of human HepG2 cells at 5 ug/ml by MTT assay; format: functional; settings: read-out: GI
# MCF7 [16] = assay: Growth inhibition of human MCF7 cells by MTT assay; format: functional, cell-based
# MCF7 [17] = assay: Growth inhibition of human MCF7 cells at 10 ug/ml by MTT assay; format: functional; settings: read-out: GI
# HepG2 [18] = assay: Growth inhibition of human HepG2 cells at 30 ug/ml by MTT assay; format: functional; settings: read-out: GI
# COLO 205 [19] = assay: Growth inhibition of human COLO205 cells at 20 ug/ml by MTT assay; format: functional; settings: read-out: GI
structure (smiles),measurement,setting,value
O=c1cc(-c2ccccc2)oc2cc(O)cc(O)c12 [CHRYSIN],inhibition at 5 ug/ml,[1],5.92%
same,inhibition of growth at 20 µg/mL,HepG2 [2],55.3%
same,inhibition of growth at 30 µg/mL,COLO 205 [3],65.2%
same,growth inhibition (GI),HepG2 [4],Dose-dependent effect
same,inhibition of growth at 10 µg/mL,HepG2 [5],29.2%
same,inhibition of growth at 5 µg/mL,MCF7 [6],14.6%
same,inhibition of growth at 10 µg/mL,COLO 205 [7],24.9%
same,inhibition at 10 ug/ml,[8],14.5%
same,inhibition of growth at 30 µg/mL,MCF7 [9],97%
same,growth inhibition (GI),COLO 205 [10],Dose-dependent effect
same,inhibition of growth at 5 µg/mL,COLO 205 [11],15.2%
same,inhibition at 20 ug/ml,[12],21.4%
same,inhibition at 30 ug/ml,[13],29.6%
same,inhibition of growth at 20 µg/mL,MCF7 [14],86.5%
same,inhibition of growth at 5 µg/mL,HepG2 [15],14.8%
same,growth inhibition (GI),MCF7 [16],Dose-dependent effect
same,inhibition of growth at 10 µg/mL,MCF7 [17],45.2%
same,inhibition of growth at 30 µg/mL,HepG2 [18],65.1%
same,inhibition of growth at 20 µg/mL,COLO 205 [19],56.5%
